Tested on: participants currently receiving high-intensity statin therapy
Assay: ROSE2 Phase 2b clinical trial: LDL-C and other lipid efficacy endpoints
Assay type: in vivo, human
Procedure: The primary objective of this study is to evaluate the effect of obicetrapib 10 mg+ezetimibe 10 mg combination therapy compared with placebo, when used as an adjunct to high-intensity statin therapy, on LDL-C at Day 84.
The secondary objectives of this study include the following, in hierarchical order: • To evaluate the effect of obicetrapib 10 mg monotherapy compared with placebo, when used as an adjunct to high-intensity statin therapy, on LDL-C at Day 84; • To evaluate the effect of obicetrapib 10 mg+ezetimibe 10 mg combination therapy compared with placebo, when used as an adjunct to high-intensity statin therapy, on ApoB at Day 84; and • To evaluate the effect of obicetrapib 10 mg monotherapy compared with placebo, when used as an adjunct to high-intensity statin therapy, on ApoB at Day 84.
This study will be a placebo-controlled, double-blind, randomized, Phase 2 study to evaluate the efficacy, safety, and tolerability of obicetrapib 10 mg, both in combination with ezetimibe 10 mg and as monotherapy, as an adjunct to high-intensity statin therapy. This study will take place at approximately 20 sites in the United States.
Up to 2 weeks after the Screening Visit, participants will return to the site on Day 1 (Visit 2) and confirm study eligibility before being randomized and beginning treatment. Approximately 114 eligible participants (38 participants per treatment group) will be randomized in a 1:1:1 ratio to 1 of the following treatment groups: • Combination therapy: Obicetrapib 10 mg+ezetimibe 10 mg (administered as one 10 mg obicetrapib tablet and one 10 mg ezetimibe capsule); • Obicetrapib monotherapy: Obicetrapib 10 mg (administered as one 10 mg obicetrapib tablet and 1 placebo capsule); or. • Placebo (administered as 1 placebo tablet and 1 placebo capsule).
During the 12-week Treatment Period, the assigned study drugs will be administered by the participants orally with water, once daily on Day 1 to Day 84 at approximately the same time each morning. Participants will return to the site on Day 28 (±2 days), Day 84 (±2 days), and Day 112 (±2 days) for efficacy, safety, and pharmacokinetic (PK) assessments. Participants, Investigators, the Clinical Research Organization (CRO), and the Sponsor will be blinded to all lipid results from Day 1 (Visit 2) for the first participant until all enrolled participants complete the Day 84 (End of Treatment) visit or are withdrawn from the study, in order to protect blinding to treatment assignment.
The primary efficacy endpoint is the percent change from Day 1 to Day 84 in LDL-C for the obicetrapib 10 mg+ezetimibe 10 mg combination treatment group compared with the placebo group.
The secondary efficacy endpoints include the following, in hierarchical order: • Percent change from Day 1 to Day 84 in LDL-C for the obicetrapib 10 mg monotherapy. • treatment group compared with the placebo group; • Percent change from Day 1 to Day 84 in ApoB for the obicetrapib 10 mg+ezetimibe 10 mg • combination treatment group compared with the placebo group; and • Percent change from Day 1 to Day 84 in ApoB for the obicetrapib 10 mg monotherapy treatment group compared with the placebo group.
The exploratory efficacy endpoints include the following: • Percent change from Day 1 to Day 84 in non-HDL-C, VLDL-C, HDL-C, TG, ApoE, Lp(a), and HDL-ApoE for the obicetrapib 10 mg+ezetimibe 10 mg combination treatment group compared with the placebo group and for the obicetrapib 10 mg monotherapy treatment group compared with the placebo group; and • Proportion of participants at Day 84 that achieve LDL-C <2.6 mmol/L (<100 mg/dL), LDL-C <1.8 mmol/L (<70 mg/dL), and LDL-C <1.3 mmol/L (<50 mg/dL) for the obicetrapib 10 mg+ezetimibe 10 mg combination treatment group compared with the placebo group and for the obicetrapib 10 mg monotherapy treatment group compared with the placebo group. […]

[1] = Exploratory Population, 10 mg each drug
[2] = mITT Population, 10 mg each drug

## CCOC(=O)N1c2ccc(C(F)(F)F)cc2[C@@H](N(Cc2cc(C(F)(F)F)cc(C(F)(F)F)c2)c2ncc(OCCCC(=O)O)cn2)C[C@H]1CC [obicetrapib, {4-[(2-{[3,5-bis(trifluoromethyl)benzyl] [(2R,4S)-1-(ethoxycarbonyl)-2-ethyl-6-(trifluoromethyl)-1,2,3,4-tetrahydroquinolin-4-yl]amino}pyrimidin-5-yl)oxy]butanoic acid}]
[1]
  ApoB Change from Baseline to Day 28, Maximum: -1 mg/dL
  ApoB Change from Baseline to Day 28, Median: -23.0 mg/dL
  ApoB Change from Baseline to Day 28, Minimum: -55 mg/dL
  ApoB Change from Baseline to Day 84, Maximum: 19 mg/dL
  ApoB Change from Baseline to Day 84, Minimum: -52 mg/dL
  ApoB Percent Change from Baseline to Day 28, Maximum: −3.0%
  ApoB Percent Change from Baseline to Day 28, Mean: −26.00%
  ApoB Percent Change from Baseline to Day 28, Median: −26.00%
  ApoB Percent Change from Baseline to Day 28, Minimum: −47.4%
  ApoB Percent Change from Baseline to Day 84, Maximum: 27.1%
  ApoB Percent Change from Baseline to Day 84, Minimum: −44.8%
  LDL-C Change from Baseline to Day 28, Maximum: -11 mg/dL
  LDL-C Change from Baseline to Day 28, Mean: -43.0 mg/dL
  LDL-C Change from Baseline to Day 28, Median: -45.0 mg/dL
  LDL-C Change from Baseline to Day 28, Minimum: -87 mg/dL
  LDL-C Change from Baseline to Day 84, Maximum: 24 mg/dL
  LDL-C Change from Baseline to Day 84, Minimum: -112 mg/dL
  LDL-C Percent Change from Baseline to Day 28, Maximum: −10.4%
  LDL-C Percent Change from Baseline to Day 28, Minimum: −82.0%
  LDL-C Percent Change from Baseline to Day 84, Maximum: 22.6%
  LDL-C Percent Change from Baseline to Day 84, Minimum: −78.4%
  Lp(a) Change from Baseline to Day 84, Maximum: 3.0 nmol/L
  ApoB at Day 28, Maximum: 110 mg/dL
  ApoB at Day 28, Mean: 65.4 mg/dL
  ApoB at Day 28, Median: 64.5 mg/dL
  ApoB at Day 28, Minimum: 32 mg/dL
  LDL-C at Day 28, Maximum: 136 mg/dL
  LDL-C at Day 28, Mean: 57.6 mg/dL
  LDL-C at Day 28, Median: 51.5 mg/dL
  LDL-C at Day 28, Minimum: 16 mg/dL
  ApoB at Day 84, Maximum: 123 mg/dL
  ApoB at Day 84, Mean: 69.1 mg/dL
  ApoB at Day 84, Median: 65.0 mg/dL
  ApoB at Day 84, Minimum: 30 mg/dL
  LDL-C at Day 84, Maximum: 148 mg/dL
  LDL-C at Day 84, Mean: 60.7 mg/dL
  LDL-C at Day 84, Median: 55.5 mg/dL
  LDL-C at Day 84, Minimum: 21 mg/dL
  Lp(a) at Day 84, Maximum: 327.7 nmol/L
  Lp(a) at Day 84, Mean: 74.75 nmol/L
  Lp(a) at Day 84, Median: 20.85 nmol/L
  Lp(a) at Day 84, Minimum: 2.8 nmol/L
ROSE2, obicetrapib 10 mg with or without ezetimibe 10 mg, adjunct to high-intensity statin
  median reduction in LDL-C: 39%
[2]
  ApoB Change from Baseline to Day 28, Maximum: 50 mg/dL
  ApoB Change from Baseline to Day 28, Median: -20.0 mg/dL
  ApoB Change from Baseline to Day 28, Minimum: -85 mg/dL
  ApoB Change from Baseline to Day 84, Maximum: 67 mg/dL
  ApoB Change from Baseline to Day 84, Minimum: -52 mg/dL
  ApoB Percent Change from Baseline to Day 28, Maximum: 64.9%
  ApoB Percent Change from Baseline to Day 28, Minimum: −62.0%
  ApoB Percent Change from Baseline to Day 84, Maximum: 100.0%
  ApoB Percent Change from Baseline to Day 84, Mean: −9.50%
  ApoB Percent Change from Baseline to Day 84, Minimum: −44.8%
  LDL-C Change from Baseline to Day 28, Maximum: 64 mg/dL
  LDL-C Change from Baseline to Day 28, Median: -35.0 mg/dL
  LDL-C Change from Baseline to Day 28, Minimum: -121 mg/dL
  LDL-C Change from Baseline to Day 84, Maximum: 98 mg/dL
  LDL-C Change from Baseline to Day 84, Minimum: -112 mg/dL
  LDL-C Percent Change from Baseline to Day 28, Maximum: 70.3%
  LDL-C Percent Change from Baseline to Day 28, Minimum: −82.0%
  LDL-C Percent Change from Baseline to Day 84, Maximum: 161.5%
  LDL-C Percent Change from Baseline to Day 84, Minimum: −78.4%
  Lp(a) Change from Baseline to Day 84, Maximum: 22.0 nmol/L
  Lp(a) Change from Baseline to Day 84, Median: -4.50 nmol/L
  ApoB at Day 28, Maximum: 140 mg/dL
  ApoB at Day 28, Mean: 73.4 mg/dL
  ApoB at Day 28, Median: 66.0 mg/dL
  ApoB at Day 28, Minimum: 32 mg/dL
  LDL-C at Day 28, Maximum: 169 mg/dL
  LDL-C at Day 28, Mean: 70.3 mg/dL
  LDL-C at Day 28, Median: 56.0 mg/dL
  LDL-C at Day 28, Minimum: 16 mg/dL
  ApoB at Day 84, Maximum: 147 mg/dL
  ApoB at Day 84, Mean: 82.4 mg/dL
  ApoB at Day 84, Median: 72.0 mg/dL
  ApoB at Day 84, Minimum: 30 mg/dL
  LDL-C at Day 84, Maximum: 196 mg/dL
  LDL-C at Day 84, Mean: 82.7 mg/dL
  LDL-C at Day 84, Median: 65.0 mg/dL
  LDL-C at Day 84, Minimum: 21 mg/dL
  Lp(a) at Day 84, Maximum: 327.7 nmol/L
  Lp(a) at Day 84, Mean: 77.96 nmol/L
  Lp(a) at Day 84, Median: 26.25 nmol/L
  Lp(a) at Day 84, Minimum: 2.8 nmol/L
